Data on 34 compounds can be found in patent publication US10774064B2 (Cadent Therapeutics, Inc., priority 2016, dated 2020).

This assay deals with T1, small-conductance Ca2+-activated K+ channels (SK channels, subtype 2) (Homo sapiens, UniProt Q9H2S1).
T1 construct: expressed in transfected cells; host or cells: HEK293
Briefly: whole-cell patch-clamp of ionic current through SK2 channels in HEK293 cells (SC100). In kind it is cell-based. The following applies: concentration that increases the basal current by 100%; HEK293 cells expressing SK2 channels. As to the method: The biological activity was determined as follows. The ionic current through small-conductance Ca^2+-activated K^+ channels (SK channels, subtype 2) was measured using the whole-cell configuration of the patch-clamp technique in a patch-clamp set-up using HEK293 tissue culture cells expressing SK2 channels as described in Hougaard et al., British Journal of Pharmacology 151, 655-665, May 8, 2007, the entire teachings of which are incorporated herein by reference. In one aspect, a compound is defined to be an SK PAM if the compound increases current in this assay, for example, if the SC100 value of the compound is less than or equal to 10 μM as determined by this assay. The SC100 value is defined to be the concentration of compound that increases the basal current by 100%.
(In patch-clamp work, channel activity is measured electrically.)

Regarding `Cc1cc(C)n(-c2cccc(NC3CCC(F)(F)CC3)n2)n1` [Compound 154, N-(4,4-difluorocyclohexyl)-6-(3,5-dimethyl-1H-pyrazol-1-yl)pyridin-2-amine], the SC100 entry was “+ (+ means >1 uM)”.
For the compound `Cc1ccn(-c2nc(NC3CCC(F)(F)CC3)cc(N3CC4C(N)C4C3)n2)n1` (stereo not shown) [Compound 155, 3-(6-((4,4-difluorocyclohexyl)amino)-2-(3-methyl-1H-pyrazol-1-yl)pyrimidin-4-yl)-3-azabicyclo[3.1.0] hexan-6-amine], the SC100 entry is “+ (+ means >1 uM)”.
Take `Cc1ccn(-c2nc(NC3CCC(F)(F)CC3)cc(NC3CC(C)(C)C3)n2)n1` [Compound 156, N4-(4,4-difluorocyclohexyl)-N6-(3,3-dimethylcyclobutyl)-2-(3-methyl-1H-pyrazol-1-yl)pyrimidine-4,6-diamine]: the SC100 result is “++ (++ means 200 nM-1000 nM)”.
With `Cc1ccn(-c2nc(NCC3(N(C)C)CCC3)cc(NC3CCC(F)(F)CC3)n2)n1` [Compound 157, N4-(4,4-difluorocyclohexyl)-N6-((1-(dimethylamino)cyclobutyl)methyl)-2-(3-methyl-1H-pyrazol-1-yl)pyrimidine-4,6-diamine], the SC100 entry was “++ (++ means 200 nM-1000 nM)”.
For the compound `CCN1CCCCC(Nc2cc(NC3CCC(F)(F)CC3)nc(-n3ccc(C)n3)n2)C1` (stereo not shown) [Compound 158, N4-(4,4-difluorocyclohexyl)-N6-(1-ethylazepan-3-yl)-2-(3-methyl-1H-pyrazol-1-yl)pyrimidine-4,6-diamine], the SC100 entry is “++ (++ means 200 nM-1000 nM)”.
The result for `Cc1cc(NC2CCC(F)(F)CC2)nc(-n2nc(C)cc2C)c1` [Compound 159, N-(4,4-difluorocyclohexyl)-6-(3,5-dimethyl-1H-pyrazol-1-yl)-4-methylpyridin-2-amine] reads “++ (++ means 200 nM-1000 nM)”.
`CCN(c1nc(C)cc(-n2nc(C)cc2C)n1)C1CCC(F)(F)CC1` [Compound 160, N-(4,4-difluorocyclohexyl)-4-(3,5-dimethyl-1H-pyrazol-1-yl)-N-ethyl-6-methylpyrimidin-2-amine]: the SC100 entry is listed as “+ (+ means >1 uM)”.
The result for `CCN(c1cc(C)nc(-n2nc(C)cc2C)n1)C1CCC(F)(F)CC1` [Compound 161, N-(4,4-difluorocyclohexyl)-2-(3,5-dimethyl-1H-pyrazol-1-yl)-N-ethyl-6-methylpyrimidin-4-amine] reads “+ (+ means >1 uM)”; that for `Cc1cc(C)n(-c2nc(NC3CCC(F)(F)CC3)cc(C(F)(F)F)n2)n1` [Compound 162, N-(4,4-difluorocyclohexyl)-2-(3,5-dimethyl-1H-pyrazol-1-yl)-6-(trifluoromethyl)pyrimidin-4-amine], “++ (++ means 200 nM-1000 nM)”; that for `Cc1cc(C)n(-c2nccc(NC3CCC(F)(F)CC3)n2)n1` [Compound 163, N-(4,4-difluorocyclohexyl)-2-(3,5-dimethyl-1H-pyrazol-1-yl)pyrimidin-4-amine], “+ (+ means >1 uM)”.
The entry for `Cc1cc(C)n(-c2nc(CF)cc(NC3CCC(F)(F)CC3)n2)n1` [Compound 165, N-(4,4-difluorocyclohexyl)-2-(3,5-dimethyl-1H-pyrazol-1-yl)-6-(fluoromethyl)pyrimidin-4-amine] is “+ (+ means >1 uM)”; for `Cc1cc(C)n(-c2cccc(N(C)C3CCC(F)(F)CC3)n2)n1` [Compound 166, N-(4,4-difluorocyclohexyl)-6-(3,5-dimethyl-1H-pyrazol-1-yl)-N-methylpyridin-2-amine] it is “+ (+ means >1 uM)”; for `Cc1cc(C)n(-c2nc(NC3CCC(F)(F)C3)cc(C(F)(F)F)n2)n1` (stereo not shown) [Compound 167, N-(3,3-difluorocyclopentyl)-2-(3,5-dimethyl-1H-pyrazol-1-yl)-6-(trifluoromethyl)pyrimidin-4-amine] it is “+ (+ means >1 uM)”.
Take `Cc1cc(C)n(-c2nc(NC3CCC(F)(F)C3)cc(C(F)F)n2)n1` (stereo not shown) [Compound 168, N-(3,3-difluorocyclopentyl)-6-(difluoromethyl)-2-(3,5-dimethyl-1H-pyrazol-1-yl)pyrimidin-4-amine]: the SC100 entry is “+ (+ means >1 uM)”.
Regarding `CCc1cc(-n2nc(C)cc2C)nc(NC2CCC(F)(F)CC2)n1` [Compound 169, N-(4,4-difluorocyclohexyl)-4-(3,5-dimethyl-1H-pyrazol-1-yl)-6-ethylpyrimidin-2-amine], the SC100 entry was “++ (++ means 200 nM-1000 nM)”.
The entry for `Cc1cc(C)n(-c2cc(C(F)(F)F)cc(NC3CCC(F)(F)CC3)n2)n1` [Compound 170, N-(4,4-difluorocyclohexyl)-6-(3,5-dimethyl-1H-pyrazol-1-yl)-4-(trifluoromethyl)pyridin-2-amine] is “++ (++ means 200 nM-1000 nM)”.
The entry for `CCc1cc(NC2CCC(F)(F)CC2)nc(-n2nc(C)cc2C)n1` [Compound 171, N-(4,4-difluorocyclohexyl)-2-(3,5-dimethyl-1H-pyrazol-1-yl)-6-ethylpyrimidin-4-amine] is “++ (++ means 200 nM-1000 nM)”; for `Cc1cc(NC2CCC(F)(F)C2)nc(-n2nc(C)cc2C)n1` (stereo not shown) [Compound 172] it is “+ (+ means >1 uM)”; for `Cc1cc(C)n(-c2cc(C(F)F)nc(NC3CCC(F)(F)CC3)n2)n1` [Compound 173] it is “++ (++ means 200 nM-1000 nM)”.
Turning to `Cc1cc(C)n(-c2cc(C#N)cc(NC3CCC(F)(F)CC3)n2)n1` [Compound 174, 2-((4,4-difluorocyclohexyl)amino)-6-(3,5-dimethyl-1H-pyrazol-1-yl)isonicotinonitrile], the SC100 result is “++ (++ means 200 nM-1000 nM)”.
The entry for `Cc1cc(C)n(-c2cc(C(N)=O)cc(NC3CCC(F)(F)CC3)n2)n1` [Compound 175, 2-((4,4-difluorocyclohexyl)amino)-6-(3,5-dimethyl-1H-pyrazol-1-yl)isonicotinamide] is “++ (++ means 200 nM-1000 nM)”; for `Cc1cc(C)n(-c2nc(CN3CCOCC3)cc(NC3CCC(F)(F)CC3)n2)n1` [Compound 176, N-(4,4-difluorocyclohexyl)-2-(3,5-dimethyl-1H-pyrazol-1-yl)-6-(morpholinomethyl)pyrimidin-4-amine] it is “+ (+ means >1 uM)”.
The result for `Cc1cc(C)n(-c2nc(CN(C)C)cc(NC3CCC(F)(F)CC3)n2)n1` [Compound 177, N-(4,4-difluorocyclohexyl)-2-(3,5-dimethyl-1H-pyrazol-1-yl)-6-((dimethylamino)methyl)pyrimidin-4-amine] reads “+ (+ means >1 uM)”; that for `Cc1cc(C)n(-c2nc(CN3CCN(C)CC3)cc(NC3CCC(F)(F)CC3)n2)n1` [Compound 178, N-(4,4-difluorocyclohexyl)-2-(3,5-dimethyl-1H-pyrazol-1-yl)-6-((4-methylpiperazin-1-yl)methyl)pyrimidin-4-amine], “+ (+ means >1 uM)”.
The entry for `Cc1ccn(-c2cc(Cl)cc(NC3CCC(F)(F)CC3)n2)n1` [Compound 179, 4-chloro-N-(4,4-difluorocyclohexyl)-6-(3-methyl-1H-pyrazol-1-yl)pyridin-2-amine] is “++ (++ means 200 nM-1000 nM)”; for `Cc1cc(NC2CCC(C(F)(F)F)CC2)nc(-n2ccc(C)n2)c1` (stereo not shown) [Compound 180, 4-methyl-6-(3-methyl-1H-pyrazol-1-yl)-N-(4-(trifluoromethyl)cyclohexyl)pyridin-2-amine] it is “+ (+ means >1 uM)”; for `Cc1cc(C)n(-c2cc(C(F)F)nc(NC3CCC(F)(F)C3)n2)n1` (stereo not shown) [Compound 181, N-(3,3-difluorocyclopentyl)-4-(difluoromethyl)-6-(3,5-dimethyl-1H-pyrazol-1-yl)pyrimidin-2-amine] it is “+ (+ means >1 uM)”.
With `Cc1cc(C)n(-c2nc(NC3CCC(F)(F)C3)cc(C(N)=O)n2)n1` (stereo not shown) [Compound 183, 6-((3,3-difluorocyclopentyl)amino)-2-(3,5-dimethyl-1H-pyrazol-1-yl)pyrimidine-4-carboxamide], the SC100 result is on record as “+ (+ means >1 uM)”.
The result for `Cc1cc(C)n(-c2nc(C#N)cc(NC3CCC(F)(F)C3)n2)n1` (stereo not shown) [Compound 184, 6-((3,3-difluorocyclopentyl)amino)-2-(3,5-dimethyl-1H-pyrazol-1-yl)pyrimidine-4-carbonitrile] reads “+ (+ means >1 uM)”.
The entry for `Cc1cc(C)n(-c2cc(CO)cc(NC3CCC(F)(F)CC3)n2)n1` [Compound 185, (2-((4,4-difluorocyclohexyl)amino)-6-(3,5-dimethyl-1H-pyrazol-1-yl)pyridin-4-yl)methanol] is “++ (++ means 200 nM-1000 nM)”.
The entry for `Cc1cc(C)n(-c2nc(NC3CCC(F)(F)CC3)cc(C3CC3)n2)n1` [Compound 186, 6-cyclopropyl-N-(4,4-difluorocyclohexyl)-2-(3,5-dimethyl-1H-pyrazol-1-yl)pyrimidin-4-amine] is “++ (++ means 200 nM-1000 nM)”.
Take `Cc1cc(C)n(-c2nc(NC3CCC(F)(F)CC3)cc(N3CCOCC3)n2)n1` [Compound 187, N-(4,4-difluorocyclohexyl)-2-(3,5-dimethyl-1H-pyrazol-1-yl)-6-morpholinopyrimidin-4-amine]: the SC100 entry is given as “++ (++ means 200 nM-1000 nM)”.
The result for `Cc1cc(C)n(-c2nc(NC3CCC(F)(F)CC3)cc(N3CCOC(C)C3)n2)n1` (stereo not shown) [Compound 188, N-(4,4-difluorocyclohexyl)-2-(3,5-dimethyl-1H-pyrazol-1-yl)-6-(2-methylmorpholino)pyrimidin-4-amine] reads “++ (++ means 200 nM-1000 nM)”; that for `Cc1cc(C)n(-c2nc(NC3CCC(F)(F)CC3)cc(OCc3cnnn3C)n2)n1` [Compound 189, N-(4,4-difluorocyclohexyl)-2-(3,5-dimethyl-1H-pyrazol-1-yl)-6-((1-methyl-1H-1,2,3-triazol-5-yl)methoxy)pyrimidin-4-amine], “+++ (+++ means <200 nM)”.
